These are literature values, as cited in patent US20150099002A1, “MEANS AND METHODS FOR ENHANCING WEIGHT GAIN IN POULTRY” (Nutrinia Ltd., priority 2007, published 2015).

The subject of the series is Cobb male chicks. The settings on record: through drinking water or feed, high amounts, at least 21 days.

Take “insulin: insulin provided to chicks through drinking water or feed in WO 2005/115473”: the “weight gain compared to same feed without insulin” value is listed as “higher weight gain”.
